Like-named read-outs stand apart in the source and are kept apart here.
Assays:
[1] = test system: Escherichia coli expressing NDM-1 (CLB30016); experiment: Antibiotic potentiation activity: synergistic concentration (MITC95) with imipenem, growth by OD600; format: cell-based
Method: (§1) Antibiotic Potentiation Activity: Determination of Synergistic Concentration
(§2) The bacterial strains tested included the clinical strains Escherichia coli expressing NDM-1 (CLB30005, CLB30016), Serratia marcescens expressing IMP-1 (CL5741), and Klebsiella pneumoniae expressing VIM-1 (IHMA599644). Inhibitor activity was measured in the presence and absence of imipenem or ceftazidime in a 384-well microplate.
(§3) The clinical strains CLB30016, CL5741, and IHMA599644 were grown on trypticase soy agar containing 5% sheep's blood. The clinical strain CLB30005 was grown on Mueller Hinton broth agar containing 8 μg/ml imipenem. The bacteria on agar plates were incubated overnight at 35° C. with ambient humidity (achieved from an open pan of water inside the incubator). The following day, individual colonies from each clinical strain were picked and resuspended in 5 ml saline to attain an OD600 of 0.14, 0.11, 0.15 and 0.13, for CLB30005, CLB30016, CL5741 and IHMA599644, respectively. These were further diluted 1:100 into 1.1×CAMHB and used to inoculate the test wells as described below.
(§4) Imipenem in 10 mM 3-(N-morpholino)propanesulfonic acid (MOPS, pH 7) was stored in single use aliquots at −80° C. Test inhibitors were dissolved in DMSO and diluted 1:50 in the assay, resulting in a final concentration range of 200 μM to 0.195 μM. On the day of the assay, 4 μl of antibiotic was added to 45 μl of bacteria followed by 1 μl of test compound and mixed by pipetting and with an orbital shaker. The concentration of antibiotic used in the assay was 1 μg/ml or 4 μg/ml. Microplates were covered and incubated at 35° C. for 22 hours to 24 hours. At the end of the incubation, absorbance was determined using a spectrophotometer. The synergistic concentration of MBLI was determined by identifying the lowest concentration of test compound in the presence of a given concentration of antibiotic that was required to inhibit 95% of the growth of the bacteria.
(§5) Representative compounds of the present invention display a synergistic effect. For example, representative compounds of EXAMPLES 1-456 were determined to restore susceptibility to imipenem at concentrations of 200 μM or less.

[2] = test system: Serratia marcescens expressing IMP-1 (CL5741); experiment: as above; format: cell-based
Method: as §1, §2, §3, §4, §5

[3] = test system: Klebsiella pneumoniae expressing VIM-1 (IHMA599644); experiment: as above; format: cell-based
Method: as §1, §2, §3, §4, §5

[4] = target: NDM-1 (Klebsiella pneumoniae, UniProt C7C422); experiment: Enzyme activity: determination of IC50, fluorescence assay with CCF2-FA substrate; format: biochemical; conditions: CCF2-FA 1.25 μM, 2 hours at 25° C., read-out: NDM1 IC50
Method: (§6) Enzyme Activity: Determination of IC50
(§7) The Class B enzyme activities were measured in the presence of a compound of the EXAMPLES as a test inhibitor in a fluorescence assay against a commercially available substrate consisting of a cephalosporin core linking 7-hydroxycoumarin to fluorescein (CCF2-FA; Life Technologies, Grand Island, N.Y.). The enzyme (NDM-1, IMP-1 or VIM-1) and the substrate were diluted in 100 mM KH2PO4 buffer (pH 7) containing 0.005% Tween-20 and 10 μM ZnSO4. In the assay, the final concentration of enzyme was 1 pM, 2 pM and 30 pM for NDM-1, IMP-1 and VIM-1, respectively, and the final concentration of CCF2-FA was 1.25 μM. The test inhibitor was dissolved in DMSO and diluted 1:50 in the assay, resulting in a final concentration range of 20 μM to 0.00063 μM. In a 384-well microplate, the test inhibitor was incubated with the metallo-β-lactamase enzyme and the substrate for 2 hours at 25° C. Fluorescence at 460 nm following excitation at 405 nm was measured. The IC50 value was determined from semi-logarithmic plots of enzyme inhibition versus inhibitor concentration, with a curve generated using a 4-parameter fit.

[5] = target: VIM-1 (Pseudomonas aeruginosa, UniProt A0A0F7KYQ8); experiment: as above; format: biochemical; conditions: CCF2-FA 1.25 μM, 2 hours at 25° C., read-out: VIM1 IC50
Method: as §6, §7

[6] = target: IMP-1 (Serratia marcescens, UniProt P52699); experiment: as above; format: biochemical; conditions: CCF2-FA 1.25 μM, 2 hours at 25° C., read-out: IMP1 IC50
Method: as §6, §7

[7] = E. coli CLB30016 (NDM-1), 95% inhibition of growth
[8] = S. marcescens CL5741 (IMP-1), 95% inhibition of growth
[9] = K. pneumoniae IHMA599644 (VIM-1), 95% inhibition of growth
[10] = 95% inhibition of bacterial growth, strain CLB30016
[11] = 95% inhibition of bacterial growth, strain CL5741
[12] = 95% inhibition of bacterial growth, strain IHMA599644

Chain of NDM-1 (C7C422 29-270, looked up, species assumed): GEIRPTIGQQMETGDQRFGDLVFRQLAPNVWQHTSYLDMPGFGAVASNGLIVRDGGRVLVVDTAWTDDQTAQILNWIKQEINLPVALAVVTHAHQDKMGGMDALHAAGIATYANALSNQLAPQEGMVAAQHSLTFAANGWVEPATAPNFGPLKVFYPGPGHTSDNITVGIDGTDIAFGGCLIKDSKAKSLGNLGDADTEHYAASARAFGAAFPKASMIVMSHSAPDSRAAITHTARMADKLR
Chain of IMP-1 (P52699 19-246, looked up, species assumed): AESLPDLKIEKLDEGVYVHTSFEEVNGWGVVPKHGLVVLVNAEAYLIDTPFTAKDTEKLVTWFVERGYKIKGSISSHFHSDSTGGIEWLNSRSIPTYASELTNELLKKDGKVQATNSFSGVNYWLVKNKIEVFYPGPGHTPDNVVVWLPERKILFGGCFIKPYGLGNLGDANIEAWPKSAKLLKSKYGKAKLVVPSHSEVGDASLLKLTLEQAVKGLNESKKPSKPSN

Row | Compound | NDM1 EC30016 MITC95 [1, 7] | IMP1 SM5741 MITC95 [2, 8] | VIM1 KP599644 MITC95 [3, 9] | IC50 ([4]; NDM-1 enzyme 1 pM) | IC50 ([5]; VIM-1 enzyme 30 pM) | IC50 ([6]; IMP-1 enzyme 2 pM) | NDM1 EC30016 MITC95 [1, 10] | IMP1 SM5741 MITC95 [2, 11] | VIM1 KP599644 MITC95 [3, 12] | IC50 ([4]; enzyme 1 pM) | IC50 ([5]; enzyme 30 pM) | IC50 ([6]; enzyme 2 pM)
1 | CCC[C@H](C(=O)O)[C@H](Cc1ccc(C2CCNCC2O)cc1)c1nnn[nH]1 (mixture of isomers) [Example 416, (2S)-2-((1S)-2-(4-(3-hydroxypiperidin-4-yl)phenyl)-1-(1H-tetrazol-5-yl)ethyl)pentanoic acid] | 25 µM | 25 µM | 25 µM | 280 nM | 20.8 nM | 1140 nM | – | – | – | – | – | –
2 | CCC[C@H](C(=O)O)C(Cc1cccc(C(F)(F)F)c1)c1nnn[nH]1 (stereo in doubt) [Example 267, (2S)-2-{(1S)-1-(1H-tetrazol-5-yl)-2-[3-(trifluoromethyl)phenyl]ethyl}pentanoic acid] | 9.4 µM | 9.4 µM | 18.8 µM | 14 nM | 0.86 nM | 280 nM | – | – | – | – | – | –
3 | CCC[C@H](C(=O)O)C(Cc1ccccc1C(F)(F)F)c1nnn[nH]1 (stereo in doubt) [Example 268, (2S)-2-{(1S)-1-(1H-tetrazol-5-yl)-2-[2-(trifluoromethyl)phenyl]ethyl}pentanoic acid] | 7.8 µM | 75 µM | 12.5 µM | 6.4 nM | 3.2 nM | 2700 nM | – | – | – | – | – | –
4 | CCC[C@H](C(=O)O)[C@H](Cc1cccc(Br)c1)c1nn[nH]n1 [Example 16, (S)-2-((S)-2-(3-bromophenyl)-1-(2H-tetrazol-5-yl)ethyl)pentanoic acid] | – | – | – | – | – | – | 9.4 µM | 4.7 µM | 9.4 µM | 12 nM | 0.75 nM | 120 nM
5 | CC(C)[C@H](C(=O)O)[C@H](Cc1csc(C2=CCNC2)n1)c1nnn[nH]1 [Example 71, (2S,3S)-4-(2-(2,5-dihydro-1H-pyrrol-3-yl)thiazol-4-yl)-2-isopropyl-3-(1H-tetrazol-5-yl)butanoic acid] | – | – | – | – | – | – | 12.5 µM | >200 µM | 25 µM | 570 nM | 120 nM | –
6 | CCC[C@H](C(=O)O)[C@H](Cc1cnc(N2CCNCC2)s1)c1nnn[nH]1 [Example 120, (S)-2-((S)-2-(2-(piperazin-1-yl)thiazo1-5-yl)-1-(1H-tetrazol-5-yl)ethyl)pentanoic acid] | – | – | – | – | – | – | 25 µM | >200 µM | 37 µM | 1200 nM | 8.5 nM | –
7 | CC(C)C[C@H](C(=O)O)[C@H](Cc1ccc(N2CC(N3CCNCC3)C2)nc1)c1nnn[nH]1 [Example 324, (2S)-4-methyl-2-[(1S)-2-[6-(3-piperazin-1-ylazetidin-1-yl)pyridin-3-yl]-1-(1H-tetrazol-5-yl)ethyl]pentanoic acid] | >200 µM | >200 µM | >200 µM | – | – | – | – | – | – | – | – | –
8 | CC(C)C[C@H](C(=O)O)[C@H](Cc1ccc(N2CC(N3CCNCC3)C2)nc1)c1nnn[nH]1 [Example 334, (2S)-4-methyl-2-[(1S)-2-[6-(3-piperazin-1-ylazetidin-1-yl)pyridin-3-yl]-1-(1H-tetrazol-5-yl)ethyl]pentanoic acid] | 6.2 µM | 25 µM | 50 µM | – | – | – | – | – | – | – | – | –
9 | CC(C)C[C@H](C(=O)O)[C@H](Cc1ccc(Oc2ccc(CCN)cc2)nc1)c1nn[nH]n1 [Example 371, (2S)-2-[(1S)-2-{6-[4-(2-aminoethyl)phenoxy]pyridin-3-yl}-1-(2H-tetrazol-5-yl)ethyl]-4-methylpentanoic acid] | 12.5 µM | 12.5 µM | 75 µM | 93 nM | – | 290 nM | – | – | – | – | – | –
10 | CC(C)C[C@H](C(=O)O)[C@H](Cc1ccc(Oc2ccccc2N2CCNCC2)nc1)c1nn[nH]n1 [Example 372, (2S)-4-methyl-2-[(1S)-2-[6-(2-piperazin-1-ylphenoxy)pyridin-3-yl]-1-(2H-tetrazol-5-yl)ethyl]pentanoic acid] | 38 µM | 75 µM | >200 µM | 570 nM | – | 1600 nM | – | – | – | – | – | –
11 | CC(C)C[C@H](C(=O)O)[C@H](Cc1ccc(Oc2ccccc2N2CCNCC2)nc1)c1nn[nH]n1 [Example 387, (2S)-4-methyl-2-[(1S)-2-[6-(2-piperazin-1-ylphenoxy)pyridin-3-yl]-1-(2H-tetrazol-5-yl)ethyl]pentanoic acid] | >200 µM | >200 µM | >200 µM | 880 nM | – | 2400 nM | – | – | – | – | – | –
12 | CC(C)C[C@H](C(=O)O)[C@H](Cc1ccc(Oc2ccc(CCN)cc2)nc1)c1nn[nH]n1 [Example 392, (2S)-2-[(1S)-2-{6-[4-(2-aminoethyl)phenoxy]pyridin-3-yl}-1-(2H-tetrazol-5-yl)ethyl]-4-methylpentanoic acid] | 6.2 µM | 25 µM | 75 µM | 49 nM | – | 270 nM | – | – | – | – | – | –
13 | CC(C)(C)[C@H](C(=O)O)[C@H](Cc1ccc(NCCO)nc1)c1nnn[nH]1.O=C(O)C(F)(F)F [Example 428, 2,2,2-trifluoroacetate] | – | – | – | 45.4 nM | 37.2 nM | 18.8 nM | – | – | – | – | – | –
14 | CC(C)(C)[C@H](C(=O)O)[C@H](Cc1ccc(NCCO)nc1)c1nnn[nH]1.O=C(O)C(F)(F)F [Example 428] | 0.7813 µM | 1.563 µM | 12.5 µM | – | – | – | – | – | – | – | – | –

Source: patent US9839642B2, “Beta-tetrazolyl-propionic acids as metallo-beta-lactamase inhibitors” (priority 2014, dated 2017)
